Measured values taken from patent US20240043883A1 (Board of Trustees of Michigan State University, priority 2021, published 2024).

Key:
[1] = biological target: T1, Corynebacterium glutamicum Cg10062 variant E114N, SEQ ID NO: 62 (Corynebacterium glutamicum, UniProt Q8NU77, E115N); test: Effect of NADP(H) on ACA hydration during in vitro 3-HP synthesis with cofactor recycling; assay type: biochemical; settings: 100 mM ACA conversion to 3-HP with 0.001-1 eq NADP^+, 25 °C, pH 8.0
T1 sequence (Q8NU77 with tags, fused parts or gaps E115N): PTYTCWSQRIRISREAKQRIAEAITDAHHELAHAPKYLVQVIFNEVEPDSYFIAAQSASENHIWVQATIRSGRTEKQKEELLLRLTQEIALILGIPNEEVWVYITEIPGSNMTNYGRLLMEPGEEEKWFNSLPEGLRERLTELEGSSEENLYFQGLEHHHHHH
Source text: (§1) This in vitro pathway developed in this study utilizes the novel Cg10062 (E114N) hydratase-only mutant with two other enzymes, YdfG and PTDH (FIG. 1). YdfG is a NADP^+-dependent 3-hydroxy acid dehydrogenase from E. coli and has previously been used for the in vivo production of 3-HP via the β-alanine pathway. […] For our system to be applied practically, the cost of cofactor is an important consideration. NADPH is an expensive cofactor and in order for the pathway to be an efficient, cost-effective pathway, the use of sub-stoichiometric amounts of co-factor was carried out. […] The formation of 3-HP in these assays were also confirmed using ^1H NMR (FIG. 4A-C).
(§2) All stocks solutions were prepared in 100 mM sodium phosphate pH 8.0. Ethylene glycol (20% w/v) was added to all enzyme stock solutions. […] Each reaction was carried out in duplicate at 25° C. with constant slow mixing on a rocking platform. Reactions were initiated by the addition of ACA. Samples from each reaction were quenched at indicated timepoints for analysis by HPLC and ^1H NMR, as described below.
All samples (100 μL) were quenched and by addition of 5 μL of 18 M sulfuric acid. The final volume was adjusted to 500 μL using 0.01 N sulfuric acid. The samples were prepared for HPLC using Whatman Mini-UniPrep® G2 syringeless filters with a glass microfiber membrane.

Cg10062 (E114N) = test: In vitro 3-HP synthesis from ACA with cofactor recycling (Cg10062 (E114N), YdfG, PTDH), HPLC and 1H NMR; assay type: biochemical, Corynebacterium glutamicum; settings: 100 mM ACA, 0.001-1 eq NADP+; hydration significantly faster at lower NADP+
Source text: as §1, §2
All samples (100 μL) were quenched and by addition of 5 μL of 18 M sulfuric acid. The final volume was adjusted to 500 μL using 0.01 N sulfuric acid. The samples were prepared for HPLC using Whatman Mini-UniPrep® G2 syringeless filters with a glass microfiber membrane. […]

[2] = biological target: T1, Corynebacterium glutamicum Cg10062 variant E114N, SEQ ID NO: 62; test: Michaelis-Menten kinetics of ACA hydration, coupled enzyme assay (MSAD/ADH, NADH oxidation at 340 nm)
Method: Steady-state kinetics were carried out using a Molecular Devices SpectraMax iD3 multi-mode microplate reader and Shimadzu UV2600 spectrophotometer. All assays were carried out in triplicate at 25° C. in 100 mM sodium phosphate pH 8.0 with a final volume of 200 μL, unless otherwise specified. The reduction of acetaldehyde by NADH-dependent alcohol dehydrogenase (ADH) was monitored by following the oxidation of NADH at 340 nm (ε=6220 M^−1 cm^−1).
All stock solutions, except ADH, required for the kinetics assays used for determining hydratase and hydratase/decarboxylase activities were prepared in 100 mM sodium phosphate pH 8.0. […] Stock solutions of ADH were prepared using deionized water, as recommended by the manufacturer. […] The final pH of each assay was 8.
The amount of enzyme used in each assay was varied in order to observe measurable activity. […] The ratios of MSA and acetaldehyde formed by each enzyme was determined by the coupled enzyme assay (FIG. 13), using the differences in rates in the presence and absence of MSAD (Table 10). […] All other components used for steady-state kinetics were identical to those used in the initial screening assays.

[3] = biological target: engineered phosphite dehydrogenase PTDH (12x Opt PTDH) from Pseudomonas stutzeri, SEQ ID NO: 73 (Stutzerimonas stutzeri, UniProt O69054, A319E/A325V/C336D/D13E/E130K/E175A/E332N/I150F/I313L/L276Q/M26I/Q132R/Q137R/Q215L/R275Q/V315A/V71I); test: Michaelis-Menten kinetics of PTDH with sodium phosphite, reduction of NADP^+ at 340 nm; assay type: biochemical; settings: sodium phosphite 10-1000 μM, NADP^+ 0.3 mM; 100 mM sodium phosphate pH 8.0, 25 °C
Method: All assays were carried out in triplicate at 25° C. in 100 mM sodium phosphate pH 8.0 in a final volume of 200 μL, unless otherwise specified. All stock solutions were prepared in 100 mM sodium phosphate pH 8.0, unless otherwise specified. A sodium phosphite stock solution was prepared by dissolving an appropriate amount of the solid in a volumetric flask with water.
The assay contained PTDH (0.05 mg mL^−1, 10 μL of a 1 mg mL^−1 stock) and NADP^+ (0.3 mM, 10 μL of a 5 mg mL^−1 stock). The assays were initiated with the addition of sodium phosphite in varying concentrations (10-1000 μM). See. FIG. 23.

[4] = substrate: O=CCC(=O)O; test: purified protein, by the assay type; assay type: biochemical, Pseudomonas putida KT2440; settings: other: MSA generated in situ from ACA (50-10,000 μM), NADH 0.1 mg/mL, 100 mM potassium phosphate pH 8.0, 25 °C
Method: MmsB was characterized using the coupled enzyme assay show in FIG. 28. All assays were carried out in triplicate at 25° C. in 100 mM potassium phosphate pH 8.0, at a final volume of 1 mL. All stock solutions used for the assays were prepared in 100 mM potassium phosphate pH 8.0. […] The assay contained Cg10062 (E114N) (0.8 U), MmsB (0.001 mg mL−1, 10 μL of a 0.1 mg mL−1 stock) and NADH (0.1 mg/mL, 20 μL of a 5 mg mL−1 stock). […] All other components and methods used for steady-state kinetics were identical to those described in Example 5.

pH dependence of MmsB = assay type: biochemical; settings: in potassium phosphate; 25° C.
Method: The pH dependence of MmsB was measured using four different buffer systems: 100 mM potassium phosphate, 50 mM Tris-HCl, 50 mM bis-tris propane and 50 mM HEPES buffers for pH 6.5-8.0, 7.0-9.0, 7.0-9.0 and 7.0-8.0, respectively. The pH dependence was studied using the respective enzyme assay used for kinetic characterization as described previously. All pH studies were carried out in triplicate (1 mL) on a Shimadzu UV2600 spectrophotometer at 25° C. and checked to ensure that the final pH of each assay remained unchanged with the addition of assay components. All stock solutions were prepared in water and the assays were carried out in the respective buffers for each pH.

[5] = substrate: O=CCC(=O)O; test: purified protein, by the assay type; assay type: biochemical, Escherichia coli; settings: other: MSA generated in situ from ACA (10-2000 μM), NADPH 0.3 mM, 100 mM sodium phosphate pH 8.0, 25 °C
Method: YdfG was characterized using the coupled enzyme assay show in FIG. 19. All assays were carried out in triplicate at 25° C. in 100 mM sodium phosphate pH 8.0, in a final volume of 200 μL, unless otherwise specified. All stock solutions prepared for the assays were prepared in 100 mM sodium phosphate pH 8.0. […] The assay contained a large excess of Cg10062 (E114N) (2 U), YdfG (0.005 mg mL^−1, 10 μL of a 0.1 mg mL^−1 stock) and NADPH (0.3 mM, 10 μL of a 5 mg mL^−1 stock).

[6] = 1H NMR characterization of YdfG-catalyzed reduction of MSA; assay type: biochemical; settings: provided with NADPH as a cofactor
Method: The volume was adjusted to 680 μL with 100 mM sodium phosphate pH 8.0. The reaction was initiated with the addition of Cg10062 (E114D) (20 μL of 3 mg mL^−1 stock). ^1H NMR spectra were obtained after incubating the samples at 25° C. for 1 h. […] Resonances at δ 2.23; (t, 2H) and δ 3.58; (t, 2H) correspond to 3-hydroxypropionate.

engineered phosphite dehydrogenase PTDH (12x Opt PTDH) from Pseudomonas stutzeri, SEQ ID NO: 73, sequence (O69054 other isoform, or with tags, fused parts or gaps with the stated changes): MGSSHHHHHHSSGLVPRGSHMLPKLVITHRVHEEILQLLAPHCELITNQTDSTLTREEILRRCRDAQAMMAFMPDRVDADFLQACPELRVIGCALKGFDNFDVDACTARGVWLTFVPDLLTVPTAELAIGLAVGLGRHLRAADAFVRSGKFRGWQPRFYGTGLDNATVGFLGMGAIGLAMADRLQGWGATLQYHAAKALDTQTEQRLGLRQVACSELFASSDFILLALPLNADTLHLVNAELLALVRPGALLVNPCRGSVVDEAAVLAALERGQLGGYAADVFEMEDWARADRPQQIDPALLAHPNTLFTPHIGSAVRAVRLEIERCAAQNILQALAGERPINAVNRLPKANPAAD

**Q.** With NADP(H) [listing 1 of 2 here] as the molecule, how does the “inhibitory effect on Cg10062 (E114N)” value [1] read?
**A.** inhibitory effect

**Q.** Which “effect on Cg10062 (E114N) (hydration of ACA to MSA)” value (Cg10062 (E114N)) does the source give for NADP(H) [listing 2 of 2 here] here?
**A.** inhibitory effect

**Q.** What does the source list for C#CC(=O)O [ACA, acetylenecarboxylic acid]?
**A.** kcat fold higher than Cg10062 (E114D) ([2]; ACA hydration, relative to E114D): 1.5 fold; kcat fold higher than Cg10062 (E114Q) ([2]; ACA hydration, relative to E114Q): 3 fold; overall catalytic efficiency relative to wild-type ([2]; ACA hydration, relative to wild-type Cg10062): comparable to that of the wild-type enzyme; kcat ([2]; ACA, 100 mM sodium phosphate pH 8.0, 25 °C): 1.04 ± 0.07 s⁻¹

**Q.** What does the source list for O=[PH]([O-])[O-].[Na+].[Na+] [sodium phosphite]?
**A.** Km [3]: 778 ± 44 µM; kcat [3]: 3.45 ± 0.06 s⁻¹

B1: P. putida KT2440 3-hydroxyisobutyrate dehydrogenase MmsB, SEQ ID NO: 76 (Pseudomonas putida KT2440) (protein)
chain: MRIAFIGLGNMGAPMARNLIKAGHQLNLFDLNKAVLAELAELGGQISPSPKDAAANSELVITMLPAAAHVRSVYLNEDGVLAGIRPGTPTVDCSTIDPQTARDVSKAAAAKGVDMGDAPVSGGTGGAAAGTLTFMVGASTELFASLKPVLEQMGRNIVHCGEVGTGQIAKICNNLLLGISMIGVSEAMALGNALGIDTKVLAGIINSSTGRCWSSDTYNPWPGIIETAPASRGYTGGFGAELMLKDLGLATEAARQAHQPVILGAVAQQLYQAMSLRGEGGKDFSAIVEGYRKKDENLYFQGLEHHHHHH
**Q.** For B1, which Km [4] is on record?
**A.** 2220 ± 192 µM

**Q.** And the kcat [4]?
**A.** 101 ± 5 s⁻¹

**Q.** And the kcat/Km [4]?
**A.** 45500 ± 5900 M⁻¹ s⁻¹

B2: MmsB: 3-hydroxyisobutyrate dehydrogenase from P. putida KT2440, SEQ ID NO: 76 (protein)
chain: MRIAFIGLGNMGAPMARNLIKAGHQLNLFDLNKAVLAELAELGGQISPSPKDAAANSELVITMLPAAAHVRSVYLNEDGVLAGIRPGTPTVDCSTIDPQTARDVSKAAAAKGVDMGDAPVSGGTGGAAAGTLTFMVGASTELFASLKPVLEQMGRNIVHCGEVGTGQIAKICNNLLLGISMIGVSEAMALGNALGIDTKVLAGIINSSTGRCWSSDTYNPWPGIIETAPASRGYTGGFGAELMLKDLGLATEAARQAHQPVILGAVAQQLYQAMSLRGEGGKDFSAIVEGYRKKDENLYFQGLEHHHHHH
modifications: MmsB from Pseudomonas putida KT2440 plus TEV protease recognition site and C-terminal His6-tag
**Q.** With B2 as the molecule, how does the “pH of highest activity” value (pH dependence of MmsB) read?
**A.** 7

B3: E. coli 3-hydroxy acid dehydrogenase YdfG, SEQ ID NO: 75 (Escherichia coli K-12) (protein)
chain: MIVLVTGATAGFGECITRRFIQQGHKVIATGRRQERLQELKDELGDNLYIAQLDVRNRAAIEEMLASLPAEWCNIDILVNNAGLALGMEPAHKASVEDWETMIDTNNKGLVYMTRAVLPGMVERNHGHIINIGSTAGSWPYAGGNVYGATKAFVRQFSLNLRTDLHGTAVRVTDIEPGLVGGTEFSNVRFKGDDGKAEKTYQNTVALTPEDVSEAVWWVSTLPAHVNINTLEMMPVTQSYAGLNVHRQENLYFQGLEHHHHHH
**Q.** With B3 as the molecule, how does the Km [5] read?
**A.** 137 ± 18 µM

**Q.** And the kcat [5]?
**A.** 6.62 ± 0.43 s⁻¹

**Q.** And the kcat/Km [5]?
**A.** 48300 ± 7100 M⁻¹ s⁻¹

B4: YdfG: NADP+-dependent 3-hydroxy acid dehydrogenase from E. coli, SEQ ID NO: 75 (protein)
chain: MIVLVTGATAGFGECITRRFIQQGHKVIATGRRQERLQELKDELGDNLYIAQLDVRNRAAIEEMLASLPAEWCNIDILVNNAGLALGMEPAHKASVEDWETMIDTNNKGLVYMTRAVLPGMVERNHGHIINIGSTAGSWPYAGGNVYGATKAFVRQFSLNLRTDLHGTAVRVTDIEPGLVGGTEFSNVRFKGDDGKAEKTYQNTVALTPEDVSEAVWWVSTLPAHVNINTLEMMPVTQSYAGLNVHRQENLYFQGLEHHHHHH
modifications: YdfG from Escherichia coli plus TEV protease recognition site and C-terminal His6-tag
**Q.** Which “conversion of malonate semialdehyde to 3-HP” value [6] does the source give for B4 here?
**A.** complete conversion
